In PMC8049054, “Systematic Assessment of Fragment Identification for Multitarget Drug Design” (Chemmedchem, 2021):
Marks after values point to notes of the source that are not given here.

Assays:
[1] = tested on: T1, farnesoid X receptor (FXR); assay: Differential scanning fluorimetry (DSF) screen on FXR; assay type: binding, human; conditions: 500 μM fragment, mean of duplicates
T1 construct: made in house; host or cells: E. coli BL21 (DE3)
Source text: For the primary screen of this fragment library, we employed differential scanning fluorimetry (DSF, also known as thermal shift). DSF is generally applicable to a large panel of protein targets and provides a robust, low‐cost screening technology for fragment‐based approaches. ^[20] […] We performed an initial fragment screen on all five targets by DSF.
Figure S3: SDS page of the purified proteins (proteins RXRα and FXR after TEV cleavage) using a 14% polyacrylamide gel, which was stained with coomassi. Precision Plus Protein™ Unstained Protein Standard s (Bio-Rad Laboratories, Inc. ) was used […]
All experiments were performed as duplicates using MicroAmp fast 96 -well plates. Each plate contained 80 different compound wells and 16 DMSO control wells. First 0.8 µl of a 25 mM Preswick Library Fragment dilution in DMSO or pure DMSO were placed in each of the well (final concentration 500 µM). Then 39.2 µl of the master mi x (containing protein, Triton x -100, SYPRO® Orange Protein Gel Stain and buffer that corresponds to the tested protein) were added.
Table S4: Final concentrations in DSF experiments:
Protein Final concentrations under screening conditions
The measurements were performed using a iCycler iQ™ Single -Color Real Time PCR device with a heat rate of 1 °C per min, an excitation wavelength of 490 nm and an emission wavelength of 570 nm. The first derivation calculated by MyiQ Op tical Software 1.0 was analyzed using Microsoft Office Excel 2013 by comparing the maxima. A shift of 1 °C (in case of 5 -LOX 0.9°C) or more compared to the DMSO control were assumed as potentially binding of the fragment.
(1 picture or pasted object on this page, not shown here)

[2] = target: T2, soluble epoxide hydrolase (sEH) (Homo sapiens, UniProt P34913); assay: sEH-H activity assay (fluorogenic substrate PHOME); assay type: biochemical; conditions: for sEH LE: ligand efficiency calculated from IC50; for IC50: mean±standard deviation of three independent experiments
T2 construct: made in house; host or cells: E. coli BL21 (DE3)
T2 sequence (P34913 1-555): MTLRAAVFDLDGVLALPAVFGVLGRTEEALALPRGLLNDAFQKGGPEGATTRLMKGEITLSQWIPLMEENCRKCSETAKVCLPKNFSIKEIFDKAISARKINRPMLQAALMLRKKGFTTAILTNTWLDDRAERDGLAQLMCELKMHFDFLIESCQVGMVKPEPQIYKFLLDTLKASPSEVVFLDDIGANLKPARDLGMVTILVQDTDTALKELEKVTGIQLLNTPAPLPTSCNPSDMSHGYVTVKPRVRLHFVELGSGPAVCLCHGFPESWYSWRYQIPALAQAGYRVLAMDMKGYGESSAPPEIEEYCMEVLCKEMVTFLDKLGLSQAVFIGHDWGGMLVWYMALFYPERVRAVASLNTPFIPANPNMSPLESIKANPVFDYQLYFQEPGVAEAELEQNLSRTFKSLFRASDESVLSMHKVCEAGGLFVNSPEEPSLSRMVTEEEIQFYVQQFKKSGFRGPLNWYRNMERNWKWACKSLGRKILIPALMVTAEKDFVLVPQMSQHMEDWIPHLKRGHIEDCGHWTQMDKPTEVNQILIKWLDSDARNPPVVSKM
Experimental: For hit validation, we employed secondary assays with orthogonal readouts to confirm fragment activities. Biochemical activity assays were chosen for the enzymes sEH, LTA4H, and 5‐LOX. […] RXRα and FXR modulation was assessed in cell‐based hybrid reporter gene assays. All ten compounds were tested at a single concentration of 500 μM in the sEH and LTA4H activity assays and with a concentration of 100 μM on 5‐LOX, RXRα, and FXR. Fragments showing an inhibition greater than 50 % (sEH‐H and LTA4H) or greater than 70 % (5‐LOX) as well as the hits determined in the DSF experiments were further characterized in full concentration‐response curves between 0.1 and 1000 μM. […] As alternative cell‐free assay we employed isothermal titration calorimetry (ITC) to determine binding affinity of the fragments towards the LBDs of both nuclear receptors. ITC was performed with a protein concentration of 50 μM and compound concentrations of 250 μM.
The 10 fragments showing dual activity in the DSF experiments were validated by functional assay screening with a fixed concentration of 500 µM in case of sEH-H and LTA4H, 100 µM in case of 5-LOX and 30 µM, 10 µM and 5 µM in case of FXR and […]
% (5-LOX) as well as the hits determined in the DSF experiments were further measured with concentrations between 1000 µM and 0.1 µM (sEH-H and LTA4H) and between 300 µM and 1 µM (5-LOX). The sEH and LTA4H activity assays were performed as triplicate and repeated 3 times. The 5-LOX activity assay was performed with one point per concentration and repeated 3 times Raw data was first analyzed in Microsoft Office Excel (2013), before IC50 curves were plotted and further analyzed using GraphPad Prism 7 and GraphPad Prism 8 for the shown graphs .
The eight approved drugs were measured in the orthogonal assay systems analogous to the fragments. The approved drugs were […]
For the sEH-H and LTA4H, they were measured as triplicate in concentrations between 1000 µM and 1 µM and each measurement was repeated three times. For the 5-LOX they were measured as single point measurement in three different experiments with concentrations between 300 µM and 1 µM. For […]
Raw data was processed according to the fragments.
The sEH-H activity assay was performed adapted from Hahn et al.5 and Lukin et al.6. In short 1 µl of compound dilution in DMSO or pure DMSO (for the positive and negative control) was placed in a black 96-well plate (Thermo Scientific™ Nunc™ F96 MicroWell™ Black Polystyrene Plate) and then 89 µl of protein-mix or buffer mix (without protein as negative control) were added and the mixture was incubated for 30 min at room temperature. 10 µl of 0.6 mM 3-phenyl-cyano(6-methoxy-2-naphthalenyl)methylester-2-oxiraneacetic acid (PHOME) were added to every well. The Plate was measured every minute for 45 min. Final concentration per well was 3 nM sEH-Fl, 0.001 % Triton X-100, 25 mM Bis-tris, 0.1 mg/ml BSA, pH = 7.0, 1.6% DMSO […]

| Compound | DSF/ΔT m FXR [1] | sEH LE [2] [kcal/mol] | IC50 [2] [µM] |
| --- | --- | --- | --- |
| c1ccc(N2CCNCC2)nc1 [Compound 1] | −0.1±0.0 °C |  |  |
| Cc1cc(=O)n(-c2ccc(C)c(C)c2)[nH]1 [Compound 2] | 0.3±0.0 °C | 0.35 | 135 ± 9.1 |
| Cc1ccccc1C(=O)Nc1ccccc1 [Compound 6] | −1.2±0.7 °C | 0.31 | 226 ± 18.5 |
| CCN(Cc1ccccc1)c1ccccc1 [Compound 7] |  |  | 56.6 ± 5.4 |
| Clc1ccc2c(c1)Nc1ccccc1CC2 [Compound 8] |  | 0.33 | 141 ± 34.1 |

The remaining lines, values ahead:

| DSF/ΔT m FXR [1] | sEH LE [2] [kcal/mol] | IC50 [2] [µM] | Compound |
| --- | --- | --- | --- |
| 1.4±0.7 °C | <0.3 | > 300 | CCCCOc1cc(C(=O)OC)ccc1N [Compound 3] |
|  |  | 151 ± 5.8 | Oc1ccc(Cc2ccccc2)cc1 [Compound 4] |
| 1.2±0.0 °C |  |  | Oc1ccc2cc[nH]c2c1 [Compound 5] |
| 21.7±3.5 ^[a] °C | 0.36 | 108 ± 11 | Oc1ccc(-c2ccc(F)cc2F)cc1 [Compound 9] |
| −11.6±2.1 °C | 0.33 | 120 ± 22.4 | Fc1ccc(-c2c[nH]c3ccccc23)cc1 [Compound 10] |
